The values below come from ChEMBL document CHEMBL1201862, “PubChem BioAssay data set” (2004).

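Exposure lasted 48 hours, with cells grown in 96-well plates and compounds tested at five concentrations. At the GI50, growth is halved.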 Activity calls are given as the source filed them. Rule as the data show it: active = GI50 up to about 1.1 µM and inactive = higher.

Some test systems named below: NCI/ADR-RES; NCI-H226; ACHN; UACC-257; SNB-19; HCT-15; SK-OV-3; SK-MEL-2; COLO 205; MOLT-4; A498; MDA-MB-231; SF-295; CCRF-CEM; MDA-N; OVCAR-5; TK-10; K562; NCI-H23.
Common to all, as to test: inhibition of tumour cell growth, NCI panel, 48 h

Turning to `O=C1N/C(=N\N=C\c2ccccc2)C2(CCCCC2)O1`, the GI50 in the experiment on NCI/ADR-RES was 42.5 µM (inactive); with NCI-H226 it was 44.5 µM (inactive); with ACHN, > 100 µM (inactive); in the experiment with UACC-257, > 100 µM (inactive); in the experiment on SNB-19 it was > 100 µM (inactive); in the experiment on HCT-15 it was 46.9 µM. Also, the GI50 was > 100 µM (inactive) in the experiment with SK-OV-3; > 100 µM (inactive) with SK-MEL-2; 93.1 µM (inactive) with COLO 205; 39.3 µM (inactive) with MOLT-4; > 100 µM (inactive) with A498; > 100 µM (inactive) in the experiment with MDA-MB-231. Moreover, the GI50 was 55.1 µM (inactive) in the experiment with SF-295; 17.8 µM (inactive) in the experiment with CCRF-CEM; > 100 µM (inactive) with MDA-N; > 100 µM (inactive) in the experiment on OVCAR-5; 74.6 µM (inactive) with TK-10; 35 µM (inactive) in the experiment on K562. Besides, the GI50 in the experiment on NCI-H23 was > 100 µM (inactive).
Regarding `Clc1n[nH]c2ccccc12`, the GI50 with NCI/ADR-RES was > 100 µM (inactive); in the experiment on NCI-H226, 71 µM (inactive); in the experiment with ACHN, > 100 µM (inactive); in the experiment on UACC-257, > 100 µM (inactive); in the experiment on SNB-19, > 100 µM (inactive); in the experiment on HCT-15, greater than 100 µM. The GI50 with SK-OV-3, with SK-MEL-2, in the experiment with COLO 205, with MOLT-4, with A498 and with MDA-MB-231 was > 100 µM (inactive) in each case. The GI50 with SF-295, in the experiment with CCRF-CEM, with MDA-N, in the experiment with OVCAR-5, with TK-10 and with K562 was > 100 µM (inactive) throughout. Moreover, the GI50 in the experiment on NCI-H23 was > 100 µM (inactive).
Consider `Cc1cccc(NC(=S)Nc2cccc(Cl)c2)n1`, for which the GI50 is > 96.4 µM (inactive) with NCI/ADR-RES; > 56.9 µM (inactive) in the experiment on NCI-H226; > 100 µM (inactive) in the experiment with ACHN; > 100 µM (inactive) with UACC-257; > 60.4 µM (inactive) in the experiment on SNB-19; greater than 100 µM in the experiment on HCT-15. Moreover, the GI50 in the experiment on SK-OV-3 is 41.9 µM (inactive); with SK-MEL-2, > 72.8 µM (inactive); in the experiment on COLO 205, > 100 µM (inactive); with MOLT-4 it was > 100 µM (inactive); in the experiment on A498, > 70.3 µM (inactive); with MDA-MB-231, > 100 µM (inactive). Also, the GI50 in the experiment on SF-295 was 32.1 µM (inactive); in the experiment with CCRF-CEM, > 100 µM (inactive); in the experiment with MDA-N, > 100 µM (inactive); in the experiment on OVCAR-5 it was > 100 µM (inactive); with TK-10 it was > 100 µM (inactive); in the experiment with K562 it was > 100 µM (inactive). For the same compound, the GI50 with NCI-H23 was > 100 µM (inactive).
In the case of `NC(=O)CO/N=C1/C(=C2/C(=O)Nc3ccccc32)Nc2ccccc21`, the GI50 is > 100 µM (inactive) with NCI/ADR-RES; 4.35 µM (inactive) with NCI-H226; 3.48 µM (inactive) with ACHN; > 100 µM (inactive) in the experiment on UACC-257; > 100 µM (inactive) in the experiment on SNB-19; 2 µM in the experiment on HCT-15. The GI50 in the experiment with SK-OV-3 is 0.522 µM (active); in the experiment with SK-MEL-2, 2.4 µM (inactive); with COLO 205 it was 1.86 µM (inactive); with MOLT-4 it was 3.44 µM (inactive); in the experiment on A498, > 100 µM (inactive); in the experiment on MDA-MB-231 it was > 100 µM (inactive). For the same compound, the GI50 in the experiment with SF-295 is > 100 µM (inactive); in the experiment on CCRF-CEM, 11.5 µM (inactive); in the experiment with MDA-N it was 53 µM (inactive); in the experiment with OVCAR-5 it was > 100 µM (inactive); in the experiment with TK-10 it was 3.85 µM (inactive); in the experiment with K562, 40 µM (inactive). Besides, the GI50 with NCI-H23 is 0.811 µM (active).
`O=C(c1ccccc1)c1ccc2nc3n(c2c1)C(c1c(Cl)cccc1Cl)SC3` (centres undefined): the GI50 was 2.13 µM (inactive) with NCI/ADR-RES; 31.2 µM (inactive) in the experiment on NCI-H226; 7.69 µM (inactive) with ACHN; 13.6 µM (inactive) in the experiment with UACC-257; 3.85 µM (inactive) with SNB-19; 3.35 µM in the experiment with HCT-15. Also, the GI50 in the experiment on SK-OV-3 is 4.31 µM (inactive); with SK-MEL-2, 8.02 µM (inactive); in the experiment on COLO 205, 4.88 µM (inactive); in the experiment on MOLT-4 it was 2.72 µM (inactive); in the experiment on A498, 15.7 µM (inactive); in the experiment on MDA-MB-231, 18.4 µM (inactive). In addition, the GI50 is 3.37 µM (inactive) in the experiment on SF-295; 1.27 µM (inactive) in the experiment with CCRF-CEM; 1.63 µM (inactive) in the experiment with MDA-N; 3.95 µM (inactive) with OVCAR-5; 25.2 µM (inactive) in the experiment on TK-10; 3.12 µM (inactive) in the experiment with K562. Also, the GI50 in the experiment with NCI-H23 was 5.66 µM (inactive).
`O=C1Nc2ccccc2/C1=C\c1c(Cl)[nH]c2ccccc12`: the GI50 in the experiment on NCI/ADR-RES was 0.355 µM (active); in the experiment with NCI-H226, 3.65 µM (inactive); in the experiment with ACHN it was 1.3 µM (inactive); in the experiment with UACC-257, 1.59 µM (inactive); with SNB-19, 0.764 µM (active); in the experiment on HCT-15, 0.608 µM. Besides, the GI50 in the experiment on SK-OV-3 is 0.32 µM (active); with SK-MEL-2, 1.11 µM (active); in the experiment with COLO 205, 0.288 µM (active); in the experiment with MOLT-4, 0.522 µM (active); in the experiment with A498, 1.15 µM (inactive); with MDA-MB-231, 1.45 µM (inactive). The GI50 is 0.287 µM (active) in the experiment on SF-295; 0.358 µM (active) with CCRF-CEM; 0.24 µM (active) in the experiment on MDA-N; 1.44 µM (inactive) in the experiment with OVCAR-5; 1.35 µM (inactive) in the experiment on TK-10; 0.364 µM (active) in the experiment with K562. Also, the GI50 with NCI-H23 was 2.45 µM (inactive).
For the compound `Cc1ccc(/C=C2\CCS(=O)(=O)c3ccccc3C2=O)cc1`, the GI50 was 11.5 µM (inactive) with NCI/ADR-RES; 16.6 µM (inactive) with NCI-H226; 15.2 µM (inactive) in the experiment with ACHN; 18.5 µM (inactive) in the experiment on UACC-257; 16.1 µM (inactive) with SNB-19; 11.9 µM in the experiment with HCT-15. Moreover, the GI50 is 21.7 µM (inactive) in the experiment on SK-OV-3; 21.9 µM (inactive) in the experiment on SK-MEL-2; 15.2 µM (inactive) in the experiment on COLO 205; 9.1 µM (inactive) with MOLT-4; 21.2 µM (inactive) in the experiment with A498; 16.9 µM (inactive) in the experiment on MDA-MB-231. In addition, the GI50 was 19.2 µM (inactive) with SF-295; 13.8 µM (inactive) in the experiment with CCRF-CEM; 28 µM (inactive) with MDA-N; 26.7 µM (inactive) in the experiment with OVCAR-5; 16.6 µM (inactive) in the experiment on TK-10; > 100 µM (inactive) with K562. In addition, in the experiment on NCI-H23, the GI50 is 15.5 µM (inactive).
Take `Nc1ncnc2c1ncn2C(=O)NC12CC3CC(CC(C3)C1)C2`: the GI50 in the experiment on NCI/ADR-RES was > 100 µM (inactive); with NCI-H226, > 100 µM (inactive); in the experiment with ACHN it was > 100 µM (inactive); in the experiment on UACC-257 it was > 100 µM (inactive); in the experiment on SNB-19, > 100 µM (inactive); with HCT-15, greater than 100 µM. Moreover, the GI50 in the experiment on SK-OV-3, in the experiment on SK-MEL-2, in the experiment on COLO 205, in the experiment on MOLT-4, in the experiment with A498 and in the experiment on MDA-MB-231 was > 100 µM (inactive) in each case. Also, the GI50 with SF-295 was > 100 µM (inactive); in the experiment with CCRF-CEM, 44 µM (inactive); in the experiment with MDA-N, > 100 µM (inactive); with OVCAR-5, > 100 µM (inactive); in the experiment with TK-10, > 100 µM (inactive); in the experiment with K562, > 100 µM (inactive). Also, in the experiment with NCI-H23, the GI50 was > 100 µM (inactive).
For the compound `CC1(C)C2CCC(=O)C1CC2` (centres undefined), the GI50 is > 100 µM (inactive) in the experiment with NCI/ADR-RES; > 100 µM (inactive) in the experiment on NCI-H226; > 100 µM (inactive) in the experiment with ACHN; > 100 µM (inactive) in the experiment with UACC-257; > 100 µM (inactive) in the experiment with SNB-19; greater than 100 µM in the experiment with HCT-15. Also, the GI50 in the experiment with SK-OV-3, in the experiment on SK-MEL-2, in the experiment with COLO 205, with MOLT-4, in the experiment on A498 and with MDA-MB-231 was > 100 µM (inactive) each time. Besides, the GI50 in the experiment on SF-295 was > 100 µM (inactive); with CCRF-CEM it was > 100 µM (inactive); with MDA-N, > 100 µM (inactive); in the experiment with OVCAR-5, > 100 µM (inactive); in the experiment on TK-10, > 100 µM (inactive); in the experiment on K562, 58.2 µM (inactive). Besides, the GI50 with NCI-H23 is > 100 µM (inactive).
For `C=C1c2ccccc2Oc2nc3nc(N)c(C#N)c(N)c3c(N)c21`, the GI50 is 28.4 µM (inactive) with NCI/ADR-RES; 20.1 µM (inactive) in the experiment on NCI-H226; 40.5 µM (inactive) in the experiment on ACHN; 53.1 µM (inactive) in the experiment with UACC-257; 40.7 µM (inactive) in the experiment with SNB-19; 16.9 µM in the experiment on HCT-15. Further, the GI50 with SK-OV-3 was 24.1 µM (inactive); in the experiment with SK-MEL-2, 17.8 µM (inactive); in the experiment with COLO 205, 19.6 µM (inactive); with MOLT-4, 23.7 µM (inactive); with A498 it was > 100 µM (inactive); with MDA-MB-231, 47.6 µM (inactive). Moreover, the GI50 is 30.3 µM (inactive) with SF-295; 23.7 µM (inactive) in the experiment with CCRF-CEM; 38.4 µM (inactive) with MDA-N; 85.5 µM (inactive) in the experiment on OVCAR-5; 39.1 µM (inactive) in the experiment on TK-10; 40.7 µM (inactive) in the experiment with K562. Further, the GI50 with NCI-H23 is 18 µM (inactive).
`COc1cc(-c2cc(O)c(-c3ccc4ccccc4n3)c(O)n2)cc(OC)c1OC`: the GI50 in the experiment on NCI/ADR-RES is 26.9 µM (inactive); with NCI-H226, > 48.3 µM (inactive); in the experiment with ACHN, > 62.7 µM (inactive); in the experiment with UACC-257, 54.3 µM (inactive); in the experiment on SNB-19, > 75.7 µM (inactive); in the experiment with HCT-15 it was 29 µM. In addition, the GI50 with SK-OV-3 was 39.6 µM (inactive); in the experiment with SK-MEL-2, 32.2 µM (inactive); in the experiment on COLO 205 it was 38.7 µM (inactive); with MOLT-4 it was 6.97 µM (inactive); in the experiment on A498 it was > 61 µM (inactive); with MDA-MB-231, 36.6 µM (inactive). Also, the GI50 was 21.9 µM (inactive) in the experiment with SF-295; 10.3 µM (inactive) in the experiment on CCRF-CEM; 3.56 µM (inactive) with MDA-N; > 59.6 µM (inactive) with OVCAR-5; 69.7 µM (inactive) in the experiment with TK-10; 3.31 µM (inactive) in the experiment on K562. Further, the GI50 with NCI-H23 was 46.2 µM (inactive).
